pIC50: −log10 of the molar value. Activity calls are given as the source filed them. The rule behind the calls is not given here.

One compound from ChEMBL document CHEMBL4325881, “Facile synthesis of 2-aryl 5-hydroxy benzo[d]oxazoles and their in vitro anti-proliferative effects on various cancer cell lines” (Bioorg Med Chem Lett, 2018) can be followed below.

Test [1] concerns HepG2. Description: Induction of apoptosis in human HepG2 cells assessed as mitochondrial depolarized cells level at 1 uM after 48 hrs by JC-1 staining based flow cytometric method (reference value: […]). It counts as functional. In general terms: In flow cytometry, cells or beads pass a laser one at a time.
The subject of test [2] is HepG2. The test can be described thus: Induction of apoptosis in human HepG2 cells assessed as viable cells at 1 uM after 48 hrs by annexin V-FITC/propidium iodide staining-based flow cytometry analysis (reference value: 98.14%). It counts as functional. To be noted: HepG2, 48 h, read-out: Activity.
Test [3] concerns HepG2. The test can be described thus: Cell cycle arrest in human HepG2 cells assessed as accumulation at G0/G1 phase at 1 uM after 24 hrs by propidium iodide staining based flow cytometric analysis (reference value: 49.93%). It counts as functional.
Test [4] deals with HepG2. The test can be described thus: Induction of apoptosis in human HepG2 cells assessed as apoptotic body formation after 48 hrs by acridine orange/ethidium bromide staining-based fluorescence microscopic analysis. It counts as functional, cell-based.
In test [5] the test system is HepG2. The test can be described thus: Induction of apoptosis in human HepG2 cells assessed as fragmented nuclei at 0.5 to 2.5 uM after 48 hrs by DAPI staining-based fluorescence microscopic analysis. It counts as functional, cell-based.
Test [6] deals with HepG2. The test can be described thus: Induction of apoptosis in human HepG2 cells assessed as mitochondrial polarized cells level at 0.5 uM after 48 hrs by JC-1 staining based flow cytometric method (reference value: 93.02%). It counts as functional.
The test system of the next test is MDA-MB-231. The test can be described thus: Cytotoxicity against human MDA-MB-231 cells assessed as reduction in cell viability after 48 hrs by MTT assay. In kind it is functional, cell-based. To be noted: MDA-MB-231, 48 h.
Test [7] deals with HepG2. The test can be described thus: Anticlonogenic activity against human HepG2 cells incubated for 24 hrs followed by fresh media replacement and measured after 12 days by crystal violet staining based assay. In kind it is functional, cell-based.
The subject of test [8] is HepG2. The test can be described thus: Cell cycle arrest in human HepG2 cells assessed as accumulation at S phase at 0.5 uM after 24 hrs by propidium iodide staining based flow cytometric analysis (reference value: 7.57%). It counts as functional.
In test [9] the test system is HepG2. The test can be described thus: Cell cycle arrest in human HepG2 cells assessed as accumulation at G0/G1 phase at 2.5 uM after 24 hrs by propidium iodide staining based flow cytometric analysis (reference value: 49.93%). In kind it is functional.
The test system of test [10] is HepG2. Description: Induction of apoptosis in human HepG2 cells assessed as mitochondrial polarized cells level at 1 uM after 48 hrs by JC-1 staining based flow cytometric method (reference value: 93.02%). It counts as functional.
Test [11] deals with HepG2. The test can be described thus: Cell cycle arrest in human HepG2 cells assessed as accumulation at G2/M phase at 0.5 uM after 24 hrs by propidium iodide staining based flow cytometric analysis (reference value: 28.79%). It counts as functional.
Test [12] has as its system HepG2. Description: Induction of apoptosis in human HepG2 cells assessed as early apoptotic cells at 1 uM after 48 hrs by annexin V-FITC/propidium iodide staining-based flow cytometry analysis (reference value: 0.98%). In kind it is functional.

As a reminder, the pIC50 is the IC50 on a negative log10 scale, so that one unit is a factor of ten. Turning to `O=Cc1c(O)ccc2oc(-c3cccc(Cl)c3)nc12`, the Activity in the test with HepG2 [1] is 25.87%; in the test on HepG2 [3], 50.36%; with HepG2 [4], “Dose-dependent effect”; in the test on HepG2 [6], 85.46%; in the test on HepG2 [7], “Dose-dependent effect”; in the test on HepG2 [8], 6.61%. Further, the Activity is on record as 45.52% with HepG2 [9], 74.54% with HepG2 [10], 23.05% with HepG2 [11] and 34.2% in the test with HepG2 [12]. In addition, in the test with HepG2 [2], the viability at 1 µM is 63.4%. Also, the outcome in the test with HepG2 [5] was Active. In addition, the pIC50 in the test with MDA-MB-231 is 5.88.
